Measured values taken from patent US6916802B2, “Amino ceramide-like compounds and therapeutic methods of use” (Genzyme Corporation, priority 2002, dated 2005).
Marks after values point to notes of the source that are not given here.

How the values were obtained:
Acid SMase = assay: Acid sphingomyelinase of MDCK cells; assay type: biochemical, canine
Description: Acid and neutral SMase assays were based on the procedures of Gatt et al. (Gatt, S. et al., “Assay of Enzymes of Lipid Metabolism With Colored and Fluorescent Derivatives of Natural Lipids,” Meth. Enzymol., 72:351-375 (1981)), using liposomes containing NBD-SM dispersed like the labeled ceramide (10 μM substrate and 30 μM lecithin). The assay medium for the neutral enzyme also contained 50 mM Tris-Cl^− (pH 7.4), 25 mM KCl, 5 mM MgCl2 and 0.29 mg of MDCK cell protein in a total volume of 0.25 ml. Incubation was at 37° C. for 30 min in the ultrasonic bath, then the fluorescent product, NBD-ceramide, was isolated by partitioning the assay mixture with 0.45 ml 2-propanol, 1.5 ml heptane, and 0.2 ml water. After centrifugation, a trace of contaminating NBD-SM was removed from 0.9 ml of the upper layer by washing with 0.35 ml water. The upper layer was analyzed with a fluorometer (460 nm excitation, 515 nm emission).
[…] The resultant ceramide was determined as above.

MDCK cells = assay: Lipid changes in MDCK cells (GlcCer, ceramide, diacylglycerol); assay type: cell-based, canine; settings: 24 h
[1] = tested on: HT-29 colon adenocarcinoma cells; assay: Tumor cell growth in vitro (sulforhodamine B), HT-29; assay type: cell-based, human; settings: rounded off to one digit, read-out: Inhibition of tumor cell growth in vitro, IC50
Description: Growth of cell lines. Comparisons of different inhibitors with regard to suppression of human cancer cell growth were made by the University of Michigan Cancer Center in vitro Drug Evaluation Core Laboratory. MCF-7 breast carcinoma cells, HT-29 colon adenocarcinoma cells, H-460 lung large cell carcinoma cells, and 9L brain gliosarcoma cells were grown in RPMI 1640 medium with 5% fetal bovine serum, 2 mM glutamine, 50 units/ml of penicillin, […] of streptomycin, and 0.1 mg/ml of neomycin. UMSCC-10A head and neck squamous carcinoma cells were grown in minimal essential medium with Earle salts and the same supplements. Medium components were from Sigma Chemical Co. Cells were plated in 96-well microtiter plates (1000 cells/well for H-460 and 9L cells, and 2000 cells/well for the other lines), and the test compounds were added 1 day later. The stock inhibitor solutions, 2 mM in 2 mM BSA, were diluted with different amounts of additional 2 mM BSA, then each solution was diluted 500-fold with growth medium to obtain the final concentrations indicated in the Figures and Tables.
Five days after plating the H-460 and 9L cells, or 6 days for the other lines, cell growth was evaluated by staining the adhering cells with sulforhodamine B and measuring the absorbance at 520 nm (Skehan, P. et al., “New Colorimetric Cytotoxicity Assay for Anticancer-Drug Screening,” J. Natl. Cancer Inst., 82:1107-1112 (1990)). The absorbance of the treated cultures is reported as percent of that of control cultures, to provide an estimate of the fraction of the cells that survived, or of inhibition of growth rate.

[2] = tested on: GlcCer synthase of MDCK cell homogenates; assay: Inhibition of ceramide glucosyltransferase (GlcCer synthase) of MDCK cell homogenates; assay type: biochemical, canine; settings: for Inhibition at 5 μM: 5 μM inhibitor, triplicate ± SD, samples partly isomer mixtures
How it was run: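 MDCK cell sonicate (~0.2 mg protein) incubated with octanoyl sphingosine (85 μg, in dioleoylphosphatidylcholine/sulfatide liposomes) and UDP-[^3H]glucose in a thermostatted ultrasonic bath. Aromatic inhibitors were dried into the tube; aliphatic inhibitors were incorporated in the substrate liposomes.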

[3] = tested on: Neutral sphingomyelinase (SMase); assay: Neutral sphingomyelinase of MDCK cells; assay type: biochemical, canine
Description: Acid and neutral SMase assays were based on the procedures of Gatt et al. (Gatt, S. et al., “Assay of Enzymes of Lipid Metabolism With Colored and Fluorescent Derivatives of Natural Lipids,” Meth. Enzymol., 72:351-375 (1981)), using liposomes containing NBD-SM dispersed like the labeled ceramide (10 μM substrate and 30 μM lecithin). […] Incubation was at 37° C. for 30 min in the ultrasonic bath, then the fluorescent product, NBD-ceramide, was isolated by partitioning the assay mixture with 0.45 ml 2-propanol, 1.5 ml heptane, and 0.2 ml water. After centrifugation, a trace of contaminating NBD-SM was removed from 0.9 ml of the upper layer by washing with 0.35 ml water. The upper layer was analyzed with a fluorometer (460 nm excitation, 515 nm emission).

| Structure (SMILES) | Sphingomyelinase pH 4.5, enzyme activity (% of control) (Acid SMase; 5 μM) | Sphingomyelinase pH 4.5, enzyme activity (% of control) (Acid SMase; 50 μM) | ceramide concentration, TLC densitometry, compared with BML-130 (MDCK cells; various concentrations) | IC50 [1] [nM] | Inhibition at 5 μM [2] [%] | Sphingomyelinase pH 7.1, enzyme activity (% of control) ([3]; 5 μM) | Sphingomyelinase pH 7.1, enzyme activity (% of control) ([3]; 50 μM) | ceramide concentration, TLC densitometry (MDCK cells; 0.5 μM) [nmol/mg protein] | ceramide concentration, TLC densitometry (MDCK cells; 1 μM) [nmol/mg protein] | ceramide concentration, TLC densitometry (MDCK cells; 2 μM) [nmol/mg protein] | ceramide concentration, TLC densitometry (MDCK cells; 4 μM) [nmol/mg protein] | degree of inhibition of GlcCer synthase ([2]; 6 μM, inhibitor incorporated into the substrate liposomes) [%] |
| --- | --- | --- | --- | --- | --- | --- | --- | --- | --- | --- | --- | --- |
| CCCCCCCCCCCCCCCC(=O)NC(CN1CCCC1)C(O)c1ccccc1 (racemic) [BML-129] | 108 ± 4 % of control | 97 ± 3 % of control | virtually identical | 2000 | 15 | 105 ± 11 % of control | 142 ± 11^b % of control | – | – | – | – | – |
| CCCCCCCCCCCCCCCC(=O)NC(CN1CCCC1)C(O)c1ccccc1 (racemic) [BML-130] | 109 ± 1 % of control | 114 ± 2 % of control | – | 2000 | 79 | 110 ± 7 % of control | 152 ± 14 % of control | 1.0 | 1.1 | 1.5 | 3.3 | 89±0.6 |
